This note sets out measurements from PubChem BioAssay (NCI).

Structures are written as SMILES. “And” between values parts separate entries of the source, which are not always exact repeats. Equal entries are not always repeated.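 Five compound concentrations were applied to cells in 96-well plates for 48 hours; endpoints were derived by simple linear interpolation of the resulting dose-response curve. At the GI50, growth is halved. The concentration for full growth arrest is given as TGI.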 Bounds are passed on as bounds.

Some test systems named below: ACHN renal; HCC-2998 colon; MDA-MB-435; SN12C renal; M14 melanoma; A498 renal; NCI-H460 lung; MDA-MB-231 breast; SF-268 CNS; SNB-19 CNS.
Common to all, as to assay: NCI tumour cell line growth inhibition, 48 h

For the compound `Nc1ncnc2c1nc(N)n2C1OC(CO)C(O)C1O` (centres undefined), the GI50 was 0.348 µM with ACHN renal; 0.32 µM with HCC-2998 colon; 0.153 µM in the assay on MDA-MB-435; 0.418 µM in the assay on SN12C renal; 0.11 µM in the assay on M14 melanoma; 0.657 µM in the assay with A498 renal. For the same compound, the GI50 is 0.454 µM in the assay on NCI-H460 lung, 0.518 µM in the assay on MDA-MB-231 breast, 0.93 µM in the assay with SF-268 CNS and 1.34 µM in the assay with SNB-19 CNS. Moreover, the TGI in the assay on ACHN renal is over 100 µM; in the assay with HCC-2998 colon it was 1.66 µM; with MDA-MB-435, 0.773 µM; in the assay with SN12C renal it was 3.21 µM; with M14 melanoma it was 0.355 µM; with A498 renal it was 1.94 µM. For the same compound, the TGI in the assay on NCI-H460 lung was 1.93 µM; with MDA-MB-231 breast, 4.86 µM; with SF-268 CNS it was 2.81 µM; with SNB-19 CNS, 6.28 µM.
As for `CC[C@@]1(O)C(=O)OCc2c1cc1n(c2=O)Cc2cc3c(Cl)c4c(cc3nc2-1)OCO4`, the GI50 is under 0.001 µM in the assay on ACHN renal; 0.149 µM and 0.235 µM with HCC-2998 colon; 0.0193 µM and 0.0229 µM in the assay with MDA-MB-435; under 0.001 µM with SN12C renal; under 0.001 µM in the assay on M14 melanoma; 0.00182 µM in the assay with A498 renal. For the same compound, the GI50 with NCI-H460 lung was under 0.001 µM; in the assay on MDA-MB-231 breast, 0.00975 µM and 0.0722 µM; in the assay with SF-268 CNS, 0.0216 µM; with SNB-19 CNS, 0.00125 µM. In addition, the TGI in the assay on ACHN renal was 0.00185 µM and 0.0109 µM; in the assay with HCC-2998 colon, 6.42 µM; in the assay with MDA-MB-435, over 100 µM; in the assay with M14 melanoma, 4.02 µM; in the assay on A498 renal, 0.309 µM and 1.19 µM; in the assay on NCI-H460 lung, 0.279 µM and 0.382 µM. The TGI is over 100 µM with MDA-MB-231 breast, 13.2 µM in the assay on SF-268 CNS and 0.26 µM in the assay with SNB-19 CNS.
On to `Oc1[nH]c2ccc(Cl)cc2c1/C=c1/ccc2c(c1)N=C(c1ccc(C(F)(F)F)cc1)N=2`, for which the GI50 with ACHN renal was 3.24 µM; in the assay on HCC-2998 colon, 2.1 µM; with MDA-MB-435, 1.9 µM; in the assay on SN12C renal, 2.37 µM; in the assay on M14 melanoma, 1.67 µM; in the assay with A498 renal it was 1.32 µM. Moreover, the GI50 is 1.88 µM with NCI-H460 lung, 1.75 µM in the assay with MDA-MB-231 breast, 2.72 µM in the assay with SF-268 CNS and 3.12 µM in the assay on SNB-19 CNS. The TGI stood at 15.4 µM in the assay with ACHN renal; 4.81 µM in the assay on HCC-2998 colon; 4.7 µM with MDA-MB-435; 6.72 µM in the assay on SN12C renal; 3.34 µM in the assay with M14 melanoma; 4.17 µM in the assay with A498 renal. In addition, the TGI came out at 3.82 µM in the assay with NCI-H460 lung, 3.63 µM in the assay with MDA-MB-231 breast, 7.64 µM in the assay with SF-268 CNS and 17 µM in the assay with SNB-19 CNS.
Turning to `O=[N+]([O-])c1ccc(Oc2cccc(C(F)(F)F)c2)c([N+](=O)[O-])c1`, the GI50 was 3.39 µM in the assay on ACHN renal; 2.3 µM in the assay on HCC-2998 colon; 1.67 µM with MDA-MB-435; 3.63 µM with SN12C renal; 2.79 µM in the assay on M14 melanoma; 12.7 µM in the assay with A498 renal. In addition, the GI50 was 3.1 µM with NCI-H460 lung, 3.17 µM in the assay with MDA-MB-231 breast, 3.17 µM in the assay on SF-268 CNS and 5.25 µM in the assay on SNB-19 CNS. Also, the TGI with ACHN renal turned out to be 13.8 µM; in the assay with HCC-2998 colon, 6.51 µM; with MDA-MB-435, 3.93 µM; in the assay on SN12C renal, 13.4 µM; in the assay with M14 melanoma, 14 µM; in the assay on A498 renal, 25.3 µM. Moreover, the TGI with NCI-H460 lung was found to be 10.2 µM; in the assay with MDA-MB-231 breast it was 10.2 µM; with SF-268 CNS it was 12.2 µM; with SNB-19 CNS it was 18.3 µM.
For `O=C1c2ccccc2-c2c1c1c(O)cccc1n2CCCc1ccccc1`, the GI50 with ACHN renal was 14.1 µM; in the assay with HCC-2998 colon it was 2.35 µM; in the assay on MDA-MB-435, 16.7 µM; in the assay on SN12C renal, 14 µM; with M14 melanoma, over 100 µM; with A498 renal, 17.3 µM. The GI50 with NCI-H460 lung was 29.7 µM; in the assay on MDA-MB-231 breast, 70 µM; in the assay with SF-268 CNS it was 88.5 µM; in the assay with SNB-19 CNS it was 85.2 µM. Moreover, the TGI in the assay with ACHN renal was 66.9 µM; in the assay on HCC-2998 colon, 6.01 µM; in the assay with MDA-MB-435 it was over 100 µM; in the assay with SN12C renal it was 67.9 µM; in the assay with M14 melanoma it was over 100 µM; in the assay on A498 renal it was 43.2 µM. The TGI in the assay with NCI-H460 lung, with MDA-MB-231 breast, with SF-268 CNS and with SNB-19 CNS was over 100 µM each time.
As to `Cc1ccc2c(n1)C(=O)C(Cl)=C(Nc1ccc(N3CCN(C)CC3)cc1)C2=O`, the GI50 in the assay with ACHN renal was 1.75 µM; in the assay on HCC-2998 colon, 4.54 µM; with MDA-MB-435 it was 1.88 µM; with SN12C renal, 1.72 µM; in the assay on M14 melanoma, 1.84 µM; in the assay with A498 renal it was 12.8 µM. The GI50 was 3.74 µM with NCI-H460 lung, 1.73 µM in the assay with MDA-MB-231 breast, 1.89 µM in the assay on SF-268 CNS and 9.46 µM in the assay with SNB-19 CNS. For the same compound, the TGI turned out to be 3.13 µM in the assay on ACHN renal; 17.5 µM with HCC-2998 colon; 3.46 µM in the assay on MDA-MB-435; 3.1 µM in the assay on SN12C renal; 3.32 µM in the assay on M14 melanoma; 25.6 µM with A498 renal. Also, the TGI in the assay on NCI-H460 lung is 15.7 µM; in the assay on MDA-MB-231 breast it was 3.19 µM; in the assay on SF-268 CNS, 4.13 µM; with SNB-19 CNS it was 21.7 µM.
As to `C=C1C(=O)O[C@H]2[C@H]1CC/C(COC(=O)c1cccc3ccccc13)=C\CC[C@@]1(C)O[C@@H]21`, the GI50 in the assay with ACHN renal was 1.52 µM; with HCC-2998 colon, 1.98 µM; in the assay with MDA-MB-435, 1.53 µM; in the assay with SN12C renal, 1.73 µM; in the assay on M14 melanoma, 1.42 µM; in the assay on A498 renal, 14.5 µM. The GI50 is 2.16 µM in the assay on NCI-H460 lung, 1.69 µM in the assay on MDA-MB-231 breast, 1.6 µM with SF-268 CNS and 1.57 µM in the assay with SNB-19 CNS. Also, the TGI amounted to 2.86 µM with ACHN renal; 3.76 µM in the assay on HCC-2998 colon; 3.35 µM in the assay with MDA-MB-435; 3.67 µM with SN12C renal; 3.21 µM in the assay on M14 melanoma; 28.4 µM with A498 renal. Further, the TGI in the assay on NCI-H460 lung was 4.84 µM; in the assay with MDA-MB-231 breast, 3.68 µM; with SF-268 CNS, 3.38 µM; in the assay on SNB-19 CNS, 3.19 µM.
